Laboratory results taken from patent US20260363251A1 (priority 2022, published 2026).

Assays:
Oculimacula yallundae = experiment: Treatment of eyespot on wheat (Table 15); type: in vivo; conditions: 1 d preventive, 200 L/ha, 450 g/ha
Zymoseptoria tritici [1] = experiment: Preventive and curative treatment of Zymoseptoria tritici on wheat (Table 8); type: in vivo; conditions: 200 L/ha, 17DAI
Puccinia recondita [2] = experiment: Preventive and curative treatment of Puccinia recondita on wheat (Table 8); type: in vivo; conditions: 200 L/ha
Puccinia striiformis = experiment: Treatment of wheat infected with yellow rust Puccinia striiformis (Table 9); type: in vivo; conditions: 200 L/ha
[3] = test system: Blumeria graminis f.sp. tritici; experiment: Treatment of powdery mildew on wheat (Table 12); type: in vivo; conditions: 1 d preventive, 200 L/ha, 27 g/ha, 7DAI
Alternaria solani = experiment: Treatment of early blight on tomato (Table 13); type: in vivo; conditions: 1 d preventive, 400 L/ha, 4DAI
[4] = test system: Colletotrichum lagenarium; experiment: Treatment of anthracnose on cucumber (Table 13); type: in vivo; conditions: 1 d preventive, 400 L/ha, 5DAI
Mycosphaerella arachidis = experiment: Treatment of early leaf spots on groundnut (Table 13); type: in vivo; conditions: 1 d preventive, 400 L/ha, 11DAI
Ramularia collo-cygni = experiment: Treatment of ramularia leaf spot on barley (Table 14); type: in vivo; conditions: 1 d preventive, 200 L/ha, 20DAI
Parastagonospora nodorum = experiment: Treatment of glume blotch on wheat (Table 14); type: in vivo; conditions: 1 d preventive, 200 L/ha, 7DAI
Rhynchosporium secalis = experiment: Treatment of scald on barley (Table 14); type: in vivo; conditions: 1 d preventive, 200 L/ha, 15DAI
Zymoseptoria tritici [5] = experiment: Treatment of Zymoseptoria tritici on wheat beyond the treated area (Table 16); type: in vivo; conditions: 188 ppm, 17DAI
Puccinia recondita [6] = experiment: Treatment of Puccinia recondita on wheat beyond the treated area (Table 16); type: in vivo; conditions: 188 ppm, 11DAI
Mycosphaerella fijiensis = experiment: Treatment of black Sigatoka on banana (Table 10); type: in vivo; conditions: 1 d preventive, 400 L/ha, 75 g/ha, 63DAI, + 0.9% Orchex 796 + 0.1% Emulsogen M
Fusarium avenaceum = type: in vivo; conditions: 1 d preventive, 220 L/ha, 125 g/ha, 14DAI
Fusarium graminearum = type: in vivo; conditions: 1 d preventive, 220 L/ha, 125 g/ha, 7DAI
Fusarium virguliforme = experiment: Seed treatment, soilborne Fusarium virguliforme in soybean in the greenhouse (Example 4.2); conditions: FS500, 40 g ai per 100 kg seeds; disease index vs infected control

With `Cc1cc(C2CC2)nc(Nc2ccccc2)n1` [Cyprodinil] the “disease symptom reduction (%) vs. Untreated” value (Oculimacula yallundae) was 56%.
`Cn1cc(C(=O)Nc2cccc3c2C2CCC3C2=C(Cl)Cl)c(C(F)F)n1` (stereo not shown) [SOLATENOL] was tested, and the “disease symptom reduction (%) vs. Untreated” value (Zymoseptoria tritici [1]; 1 d preventive, 1 g/ha) was 0%, the “disease symptom reduction (%) vs. Untreated” value (Zymoseptoria tritici [1]; 1 d preventive, 3 g/ha) was 0% and the “disease symptom reduction (%) vs. Untreated” value (Zymoseptoria tritici [1]; 1 d preventive, 9 g/ha) was 70%. For the same compound, the “disease symptom reduction (%) vs. Untreated” value (Zymoseptoria tritici [1]; 1 d preventive, 27 g/ha) was 97%, the “disease symptom reduction (%) vs. Untreated” value (Zymoseptoria tritici [1]; 3 d curative, 1 g/ha) was 4% and the “disease symptom reduction (%) vs. Untreated” value (Zymoseptoria tritici [1]; 3 d curative, 3 g/ha) was 0%. The “disease symptom reduction (%) vs. Untreated” value (Zymoseptoria tritici [1]; 3 d curative, 9 g/ha) was 61%, the “disease symptom reduction (%) vs. Untreated” value (Zymoseptoria tritici [1]; 3 d curative, 27 g/ha) was 82% and the “disease symptom reduction (%) vs. Untreated” value (Puccinia recondita [2]; 1 d preventive, 1 g/ha, 10DAI) was 49%. The “disease symptom reduction (%) vs. Untreated” value (Puccinia recondita [2]; 1 d preventive, 3 g/ha, 10DAI) was 88%, the “disease symptom reduction (%) vs. Untreated” value (Puccinia recondita [2]; 1 d preventive, 9 g/ha, 10DAI) was 96% and the “disease symptom reduction (%) vs. Untreated” value (Puccinia recondita [2]; 1 d preventive, 27 g/ha, 10DAI) was 99%. The “disease symptom reduction (%) vs. Untreated” value (Puccinia recondita [2]; 3 d curative, 1 g/ha, 11DAI) was 47%, the “disease symptom reduction (%) vs. Untreated” value (Puccinia recondita [2]; 3 d curative, 3 g/ha, 11DAI) was 58% and the “disease symptom reduction (%) vs. Untreated” value (Puccinia recondita [2]; 3 d curative, 9 g/ha, 11DAI) was 84%. For the same compound, the “disease symptom reduction (%) vs. Untreated” value (Puccinia recondita [2]; 3 d curative, 27 g/ha, 11DAI) was 92%, the “disease symptom reduction (%) vs. Untreated” value (Puccinia striiformis; 1 d preventive, 0.9 g/ha, 22DAI) was 0% and the “disease symptom reduction (%) vs. Untreated” value (Puccinia striiformis; 1 d preventive, 2.8 g/ha, 22DAI) was 76%. The “disease symptom reduction (%) vs. Untreated” value (Puccinia striiformis; 1 d preventive, 8 g/ha, 22DAI) was 90%, the “disease symptom reduction (%) vs. Untreated” value (Puccinia striiformis; 1 d preventive, 25 g/ha, 22DAI) was 100% and the “disease symptom reduction (%) vs. Untreated” value (Puccinia striiformis; 1 d preventive, 75 g/ha, 22DAI) was 100%. The “disease symptom reduction (%) vs. Untreated” value (Puccinia striiformis; 4 d curative, 0.9 g/ha, 21DAI) was 84%, the “disease symptom reduction (%) vs. Untreated” value (Puccinia striiformis; 4 d curative, 2.8 g/ha, 21DAI) was 93% and the “disease symptom reduction (%) vs. Untreated” value (Puccinia striiformis; 4 d curative, 8 g/ha, 21DAI) was 95%. The “disease symptom reduction (%) vs. Untreated” value (Puccinia striiformis; 4 d curative, 25 g/ha, 21DAI) was 99%, the “disease symptom reduction (%) vs. Untreated” value (Puccinia striiformis; 4 d curative, 75 g/ha, 21DAI) was 100% and the “disease symptom reduction (%) vs. Untreated” value [3] was 54%. For the same compound, the “disease symptom reduction (%) vs. Untreated” value (Alternaria solani; 1 g/ha) was 40%, the “disease symptom reduction (%) vs. Untreated” value (Alternaria solani; 2 g/ha) was 53% and the “disease symptom reduction (%) vs. Untreated” value (Alternaria solani; 6 g/ha) was 80%. For the same compound, the “disease symptom reduction (%) vs. Untreated” value (Alternaria solani; 20 g/ha) was 90%, the “disease symptom reduction (%) vs. Untreated” value (Alternaria solani; 60 g/ha) was 100% and the “disease symptom reduction (%) vs. Untreated” value ([4]; 1 g/ha) was 53%. For the same compound, the “disease symptom reduction (%) vs. Untreated” value ([4]; 2 g/ha) was 67%, the “disease symptom reduction (%) vs. Untreated” value ([4]; 6 g/ha) was 60% and the “disease symptom reduction (%) vs. Untreated” value ([4]; 20 g/ha) was 90%. For the same compound, the “disease symptom reduction (%) vs. Untreated” value ([4]; 60 g/ha) was 100%, the “disease symptom reduction (%) vs. Untreated” value (Mycosphaerella arachidis; 1 g/ha) was 56% and the “disease symptom reduction (%) vs. Untreated” value (Mycosphaerella arachidis; 2 g/ha) was 67%. For the same compound, the “disease symptom reduction (%) vs. Untreated” value (Mycosphaerella arachidis; 6 g/ha) was 89%, the “disease symptom reduction (%) vs. Untreated” value (Mycosphaerella arachidis; 20 g/ha) was 100% and the “disease symptom reduction (%) vs. Untreated” value (Mycosphaerella arachidis; 60 g/ha) was 98%. The “disease symptom reduction (%) vs. Untreated” value (Ramularia collo-cygni; 4 g/ha) was 6%, the “disease symptom reduction (%) vs. Untreated” value (Ramularia collo-cygni; 12 g/ha) was 32% and the “disease symptom reduction (%) vs. Untreated” value (Ramularia collo-cygni; 40 g/ha) was 80%. The “disease symptom reduction (%) vs. Untreated” value (Ramularia collo-cygni; 120 g/ha) was 97%, the “disease symptom reduction (%) vs. Untreated” value (Parastagonospora nodorum; 4 g/ha) was 16% and the “disease symptom reduction (%) vs. Untreated” value (Parastagonospora nodorum; 12 g/ha) was 44%. For the same compound, the “disease symptom reduction (%) vs. Untreated” value (Parastagonospora nodorum; 40 g/ha) was 81%, the “disease symptom reduction (%) vs. Untreated” value (Parastagonospora nodorum; 120 g/ha) was 85% and the “disease symptom reduction (%) vs. Untreated” value (Rhynchosporium secalis; 4 g/ha) was 31%. For the same compound, the “disease symptom reduction (%) vs. Untreated” value (Rhynchosporium secalis; 12 g/ha) was 60%, the “disease symptom reduction (%) vs. Untreated” value (Rhynchosporium secalis; 40 g/ha) was 94% and the “disease symptom reduction (%) vs. Untreated” value (Rhynchosporium secalis; 120 g/ha) was 100%. The “disease cover on leaf (%)” value (Zymoseptoria tritici [5]; leaf 1, not treated) was 100%, the “disease symptom reduction (%) vs. Untreated” value (Zymoseptoria tritici [5]; leaf 1, not treated) was 0% and the “disease cover on leaf (%)” value (Zymoseptoria tritici [5]; leaf 2 - base, not treated) was 89%. The “disease symptom reduction (%) vs. Untreated” value (Zymoseptoria tritici [5]; leaf 2 - base, not treated) was 8%, the “disease cover on leaf (%)” value (Zymoseptoria tritici [5]; leaf 2 - middle, treated) was 0% and the “disease symptom reduction (%) vs. Untreated” value (Zymoseptoria tritici [5]; leaf 2 - middle, treated) was 100%. For the same compound, the “disease cover on leaf (%)” value (Zymoseptoria tritici [5]; leaf 2 - tip, not treated) was 0%, the “disease symptom reduction (%) vs. Untreated” value (Zymoseptoria tritici [5]; leaf 2 - tip, not treated) was 100% and the “disease cover on leaf (%)” value (Zymoseptoria tritici [5]; leaf 3, not treated) was 42%. For the same compound, the “disease symptom reduction (%) vs. Untreated” value (Zymoseptoria tritici [5]; leaf 3, not treated) was 15%, the “disease cover on leaf (%)” value (Puccinia recondita [6]; leaf 1, not treated) was 80% and the “disease symptom reduction (%) vs. Untreated” value (Puccinia recondita [6]; leaf 1, not treated) was 11%. For the same compound, the “disease cover on leaf (%)” value (Puccinia recondita [6]; leaf 2 - base, not treated) was 81%, the “disease symptom reduction (%) vs. Untreated” value (Puccinia recondita [6]; leaf 2 - base, not treated) was 0% and the “disease cover on leaf (%)” value (Puccinia recondita [6]; leaf 2 - middle, treated) was 0%. For the same compound, the “disease symptom reduction (%) vs. Untreated” value (Puccinia recondita [6]; leaf 2 - middle, treated) was 100%, the “disease cover on leaf (%)” value (Puccinia recondita [6]; leaf 2 - tip, not treated) was 2% and the “disease symptom reduction (%) vs. Untreated” value (Puccinia recondita [6]; leaf 2 - tip, not treated) was 98%. The “disease cover on leaf (%)” value (Puccinia recondita [6]; leaf 3, not treated) was 31% and the “disease symptom reduction (%) vs. Untreated” value (Puccinia recondita [6]; leaf 3, not treated) was 16%.
`CON(C(=O)c1cn(C)nc1C(F)F)C(C)Cc1c(Cl)cc(Cl)cc1Cl` (stereo not shown) [Pydiflumetofen] was tested, and the “disease symptom reduction (%) vs. Untreated” value (Mycosphaerella fijiensis) was 97%, the “disease symptom reduction (%) vs. Untreated” value (Fusarium avenaceum) was 96% and the “disease symptom reduction (%) vs. Untreated” value (Fusarium graminearum) was 94%. For the same compound, the “activity (%)” value (Fusarium virguliforme) was 89%.
